According to patent publication US10947188B2, “Small molecule ferroptosis inducers” (THE TRUSTEES OF COLUMBIA UNIVERSITY IN THE CITY OF NEW YORK, priority 2016, dated 2021):
Where a SMILES comes first, the peptide text is derived from it. The star is where a group is joined. Cbz = O=C(OCc1ccccc1)*

Assays:
HT-1080 or BJeLR cells = test: Analysis of ROS generation (H2-DCFDA flow cytometry); assay type: cell-based
Method: Grew 200,000 HT-1080 or BJeLR cells in six-well plates at 37° C. for 16 h. Cells were treated with test compounds, trypsinized, pelleted, and washed once with PBS. For lipophilic or aqueous ROS detection, cells were re-suspended in Hanks' Balanced Salt Solution (HBSS; Life Technologies) containing test compounds as well as C11-BODIPY(581/591) (2 μM) or H2-DCFDA (25 μM), respectively (Life Technologies), and incubated for 10 min at 37° C. Cells were then pelleted, re-suspended in 500 μL HBSS, strained through a 40-μm cell strainer (BD Falcon), and analyzed using a BD Accuri C6 flow cytometer (BD Biosciences). Both dyes were measured in the FL1 channel. Experiments were done in biological triplicates.

GPX1 = test: Western blotting of GPX1 protein abundance; assay type: cell-based, human; details: BJeLR; FIN56 5 μM, 10 h
Method: (§1) Seeded 300,000 cells (HT-1080 or BJeLR) per well in six-well plates. For cotreatment, ferroptosis inducers (10 μM erastin for 11 h, 0.5 μM (1S, 3R)-RSL3 for 2 h, or 5 μM FIN56) and 100 μM α-tocopherol were added to cell culture at the same time, and cells were then incubated for 10 h (FIG. 2E). When other death-modulating compounds (100 nM sodium selenite, 1 μM cerivastatin, 100 μg/mL mevalonic acid, 30 μM C75, or 2 μM cerulenin) were used in cotreatments, cells were pre-incubated with the modulators for 24 h before being treated with ferroptosis inducers for 6 h. Cell lysis, SDS-PAGE and protein transfer to PVDF membrane were performed as previously described (Dixon et al. 2012). We used the following antibodies: anti-human α-tubulin (Santa Cruz Biotechnology, sc-32293, 1:10,000 dilution), anti-human GPX4 (Abcam, ab41787, 1:2,000 dilution), anti-human GPX1 (R&D Systems, AF3798, 1:1,000 dilution), and anti-human SQS (Abcam, ab109723 for full-length, ab195046 for truncated, both at 1:1,000 dilution). Secondary antibodies were from LI-COR (1:3,000 dilution). The PVDF membranes labeled with primary and secondary antibodies were scanned using an Odyssey Imaging System (LI-COR). Experiments were performed in biological triplicates, and the mean±s.e. of intensity was plotted.

[1] = system: BJeLR, DRD, BJeHLT, and BJeH; test: Viability of four engineered BJ cell lines (HRAS G12V selectivity); assay type: cell-based, human; details: 48 h
GPX4 = test: Western blotting of GPX4 protein abundance; assay type: cell-based, human
Method: as §1

HT-1080 cells = test: Cell viability assay (Alamar Blue), lethal compounds with or without modulators; assay type: cell-based; details: for effect of ferroptosis inhibitors (α-tocopherol, deferoxamine) on lethality: cotreatment
Procedure, shortened: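 HT-1080 cells, 1,000 per well, given twofold 12-point lethal compound series at seeding, 24 h at 37 °C; modulators (100 nM selenite, 1 µM cerivastatin, 100 µg/mL mevalonate) added 24 h before. Alamar Blue 6 h, fluorescence 530/590; viability normalized to vehicle (or modulator) and media wells, typically biological triplicate.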

O=S(=O)(NC1CCCCC1)c1ccc2c(c1)C(=NO)c1cc(S(=O)(=O)NC3CCCCC3)ccc1-2 [FIN56, N2,N7-dicyclohexyl-9-(hydroxyimino)-9H-fluorene-2,7-disulfonamide]
kinetics of ROS accumulation compared to (1S, 3R)-RSL3 (HT-1080 or BJeLR cells; BJeLR, 5 μM FIN56 vs 0.5 μM (1S, 3R)-RSL3, 25 μM H2-DCFDA): slower to induce the accumulation of ROS
abundance of GPX1 protein (GPX1): but not that of the related selenoprotein GPX1, was substantially decreased
oncogenic RAS selectivity in the BJ engineered cell line series [1]: greater oncogenic RAS selectivity
potency compared to CIL56 ([1]; BJ cell line series): greater potency
abundance of GPX4 protein (GPX4; BJeLR, cotreatment with 100 μM α-tocopherol, 10 h, FIN56 5 μM): substantially decreased
effect of ferroptosis inhibitors (α-tocopherol, deferoxamine) on lethality (HT-1080 cells; HT-1080 cells): fully suppressed
suppression of lethality by mevalonate-pathway modulators (FPP, YM-53601, idebenone) and α-tocopherol (HT-1080 cells; HT-1080 cells, modulatory profiling scheme): potently suppressed by all the compounds

N/C(=N\OC(=O)C12CC3CC(CC(C3)C1)C2)c1ccccc1 [CIL41]
ROS accumulation detected using H2-DCFDA (HT-1080 or BJeLR cells): induced ROS accumulation
oncogenic RAS selectivity in the BJ engineered cell line series [1]: did not exhibit oncogenic RAS selectivity
effect of ferroptosis inhibitors (α-tocopherol, deferoxamine) on lethality (HT-1080 cells; HT-1080 cells): strongly suppressed by ferroptosis inhibitors

O=S(=O)(c1ccc2c(c1)C(=NO)c1cc(S(=O)(=O)N3CCCCC3)ccc1-2)N1CCCCC1 [CIL56, 2,7-bis(piperidin-1-ylsulfonyl)-9H-fluoren-9-one oxime]
oncogenic RAS selectivity in the BJ engineered cell line series [1]: retained some degree of selectivity toward oncogenic-RAS-expressing cells
effect of ferroptosis inhibitors (α-tocopherol, deferoxamine) on lethality (HT-1080 cells; HT-1080 cells): suppressed the lethality of low concentrations
suppression of lethality by antioxidants and iron chelators (HT-1080 cells; ferroptosis-sensitive HT-1080 cells): up to 10 fold

CC(C)C[C@@H](C=O)NC(=O)[C@H](CC(C)C)NC(=O)[C@H](CC(C)C)NC(=O)OCc1ccccc1 [MG132, reference compound] (Cbz-Leu-Leu-Leu-aldehyde)
effect on FIN56-induced decrease of GPX4 protein abundance (GPX4; 5 μM FIN56): did not inhibit GPX4 degradation significantly

C[C@@H]1C[C@@H]([C@H](O)CC2CC(=O)NC(=O)C2)C(=O)[C@@H](C)C1 [cycloheximide, Cycloheximide, reference compound]
amount of GPX4 protein compared to α-tubulin after translation inhibition (GPX4): did not show substantially decreased amounts of GPX4 protein
